Data on 5 compounds can be found in patent US20190091163A1, “NANO-SIZED DRUG DELIVERY STRUCTURE” (INSTITUT NATIONAL DE LA SANTE ET DE LA RECHERCHE MEDICALE …, priority 2016, published 2019).

In assay [1] the test system is SKBR3 cells. The assay can be described thus: Uptake mechanism of GO nanodrug structures with endocytosis inhibitors (flow cytometry). In kind it is cell-based, human. Conditions: 1 hour pre-incubation with inhibitor, 15 mins with nanoparticles, FIG. 10. On the procedure: The uptake mechanism of the GO nanodrug structures was then investigated using various endocytosis inhibitors in comparison with the graphene oxide drug metamaterial described here-above, free of any drug active (GO control).
Different endocytosis inhibitors were tested: • Cytochalasin D, an inhibitor of macropinocytosis-dependent endocytosis in a dosage of 10, 5 and 1 (μM); • Genistein, an inhibitor of caveolae-mediated endocytosis in a dosage of 100, 30 and 25 (μM); and • Chlorpromazine (CMZ), an inhibitor of clathrin-mediated endocytosisin a dosage of 5, 1 and 0.5 (μM).
Cellular internalization of each nanostructure was followed as described here-after.
SKBR3 cells were seeded to a density of 1.0×10^5 cells per well in a 12-well plates followed by an overnight incubation. The cells were rinsed with PBS and pre-incubated with different concentrations of the appropriate endocytic inhibitor in serum-free RPMI 1640 media, for 1 hour. The media was then replaced with the same concentration of inhibitors in serum-containing RPMI 1640 media, the nanoparticles were added and cells were incubated for 15 mins. Following incubation, the medium was removed and cells were rinsed several times with cold PBS. The cells were collected with trypsin EDTA and analyzed using flow cytometry analysis.
A general note: Flow cytometry measures light scatter and fluorescence of single cells or particles in a stream.

For assay [2], the system named is SKBR3 cells. The assay can be described thus: Uptake efficiency of GO-HER2 antibody nanodrug structures after preincubation with Lapatinib. Format: cell-based, human. Conditions: SKBR3 cells preincubated with Lapatinib; FIG. 11. The text has this: Abscissa: amount of Lapatinib (μM). Ordinate: uptake efficiency (%).
Lapatinib is a known HER2 tyrosine kinase inhibitor, which induces stabilization and accumulation of HER2.

For assay [3], the system named is MDA-MB-231 (human breast basal epithelial cancer cells). The note with it: MDA-MB-231 cells, different concentrations of the peptide; Kawamoto et al. 2013; cited from earlier work.

Consider `CN(C)CCCN1c2ccccc2Sc2ccc(Cl)cc21` [Chlorpromazine], for which, in the assay with SKBR3 cells [1], the “inhibition of internalization (cellular uptake) of GO nanodrug structures” value (“inhibition of internalization” below) is given as “did not show any notable inhibition”.

In the case of `C=C1[C@@H](C)[C@H]2[C@H](Cc3ccccc3)NC(=O)[C@]23[C@H](OC(C)=O)/C=C/[C@@](C)(O)C(=O)[C@@H](C)C/C=C/[C@H]3[C@@H]1O` [Cytochalasin D], in the assay with SKBR3 cells [1], the “inhibition of internalization” value is reported as “significantly inhibited the internalization”.

Regarding `O=c1c(-c2ccc(O)cc2)coc2cc(O)cc(O)c12` [Genistein], in the assay with SKBR3 cells [1], the “inhibition of internalization” value was “did not show any notable inhibition”.

Regarding `CS(=O)(=O)CCNCc1ccc(-c2ccc3ncnc(Nc4ccc(OCc5cccc(F)c5)c(Cl)c4)c3c2)o1` [Lapatinib], the “effect on uptake efficiency of GO-HER2 antibody nanodrug structures” value with SKBR3 cells [2] was “dose-dependent reduction in intake”.

Regarding “KLLLKLLKKLLKLLKKK (anti-cancer cationic lytic peptide) [cationic lytic anti-cancer peptide, disintegrates the cell membrane]”, the “effect on cell proliferation” value in assay [3] was “dose-dependent reduction in cell proliferation”.
